The test system of data set [1] is CD4+/CD45RO+ memory T cells. The data set is described as follows: PBMC Memory T Cell Adhesion Assay. Type of data set: cell-based, human. How it is done:
PBMC Memory T Cell Adhesion Assay
Fresh CD4+/CD45RO+ memory T cells were isolated from human peripheral blood mononuclear cell (PBMC) donors by Aragen Bioscience Inc. (Morgan Hill, CA). The assay plate was prepared using IgG Fc capture antibody (donkey anti human) immobilized at 500 ng/well in 50 mM sodium bicarbonate buffer, pH 9.5, ON, 4 C onto a Greiner Fluotrac plate (100 ul per well). The plate was rinsed two time with Blocking Buffer (25 mM Tris HCl, pH7.5, 150 mM NaCl, 1.5% BSA, 0.05% Tween), and blocked with Blocking Buffer for 2 hours at 37 C or 5 hours at RT using 200 ul per well. The Blocking Buffer was removed and either MAdCAM-1 or VCAM-1 at 400 ng/well in Blocking Buffer was added and the plate incubated overnight at 4 C (100 ul per well). The plate was washed two times with Blocking Buffer, and rinsed once with 200 ul Binding Media (DMEM phenol red free, 10 mM HEPES, 1×Na pyruvate, 1× Glutamine, and supplemented with 1 mM MnC12 prior to use). To prepare cells, approximately 25 million CD4+/CD45RO+ memory T cells were counted by trypan blue exclusion using a haemocytometer to determine viability and cell count. The cells were transferred to a 50 ml conical tube, and centrifuged at 1200 rpm for 10 minute. The media was aspirated and the cell pellet resuspended in 15 ml Binding Media. The cells were centrifuged again and resuspended in the appropriate amount of Binding Media to be used for assays (50 ul of cells per well at 2× the final density). To each well, and equal volume (50 ul) of test compound was added and the plate was incubated for 1.5 hours at 37 C, 5% CO2. Each well was rinsed 3× with 150 ul per well of Binding Media. […] The plate was incubated at 37 C, 5% CO2, for 45 minutes. The plate was protected from light by using black adhesive seals. Fluorescence intensity was measured using a Molecular Devices Gemini EM Fluorescent Plate Reader (Ex 485/Em530, Bottom Read, Reading Sensitivity=20). IC50 curves are generated using Graph Pad Prism and the curves analyzed using analyzed using a non-linear regression (four parameters) algorithm. The log (concentration) versus RFU (Ex485/Em530) was plotted to determine IC50 values.

Data set [2] in a line: Simulated Gastric Fluid (SGF) Stability Assay. Type of data set: in vitro ADME. The settings on record: simulated gi fluid; porcine pepsin, pH 2, 37° C.; dimers, Table 7. How it is done: Simulated Gastric Fluid (SGF) Stability Assays
Studies were carried out in simulated gastric fluid (SGF) to evaluate intestinal stability of the peptide molecules of the instant invention. SGF was prepared by adding 20 mg NaCl, 32 mg porcine pepsin (MP Biochemicals, catalog 02102599), and 70 μl HCl to 10 ml water (final pH=2). Aliquots of SGF (0.5 ml each) were pre-warmed at 37° C. To start the reaction, 1 μl of peptide stock solution (10 mM in DMSO) was added to 0.5 ml SGF and thoroughly mixed such that the final peptide concentration was 20 μM. The reactions were incubated at 37° C. with gentle shaking. At each time point (0, 15, 30, 60 min) 50 μl aliquots were removed and added to 200 μl acetonitrile containing 0.1% formic acid to quench the reaction. Samples are stored at 4° C. until the end of the experiment and centrifuged at 10,000 rpm for 5 minutes. Aliquots of the supernatant were removed, diluted 1:1 into distilled water containing internal standard, and analyzed by LCMS/MS. Percent remaining at each timepoint was calculated based on the peak area response ratio of test to compound to internal standard. Time 0 was set to 100%, and all later timepoints were calculated relative to time 0. Half-lives were calculated by fitting to a first-order exponential decay equation using GraphPad.

The nature of data set [3]: Simulated Intestinal Fluid (SIF) Stability Assay. Type of data set: in vitro ADME. The settings on record: simulated gi fluid, porcine pancreatin. The method, boiled down:
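Percent peptide remaining over time was measured by LC-MS/MS as the peak-area ratio to internal standard, and a first-order decay fit gave half-life. Digests contained 22 μM peptide and 1% pancreatin in pH 6.5 FaSSIF buffer at 37° C. Aliquots were quenched in organic solvent with formic acid.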

Another data set has as its target T1, RPMI 8866 cells (Homo sapiens, UniProt P13612+P26010).
T1 sequence (P13612 34-1032): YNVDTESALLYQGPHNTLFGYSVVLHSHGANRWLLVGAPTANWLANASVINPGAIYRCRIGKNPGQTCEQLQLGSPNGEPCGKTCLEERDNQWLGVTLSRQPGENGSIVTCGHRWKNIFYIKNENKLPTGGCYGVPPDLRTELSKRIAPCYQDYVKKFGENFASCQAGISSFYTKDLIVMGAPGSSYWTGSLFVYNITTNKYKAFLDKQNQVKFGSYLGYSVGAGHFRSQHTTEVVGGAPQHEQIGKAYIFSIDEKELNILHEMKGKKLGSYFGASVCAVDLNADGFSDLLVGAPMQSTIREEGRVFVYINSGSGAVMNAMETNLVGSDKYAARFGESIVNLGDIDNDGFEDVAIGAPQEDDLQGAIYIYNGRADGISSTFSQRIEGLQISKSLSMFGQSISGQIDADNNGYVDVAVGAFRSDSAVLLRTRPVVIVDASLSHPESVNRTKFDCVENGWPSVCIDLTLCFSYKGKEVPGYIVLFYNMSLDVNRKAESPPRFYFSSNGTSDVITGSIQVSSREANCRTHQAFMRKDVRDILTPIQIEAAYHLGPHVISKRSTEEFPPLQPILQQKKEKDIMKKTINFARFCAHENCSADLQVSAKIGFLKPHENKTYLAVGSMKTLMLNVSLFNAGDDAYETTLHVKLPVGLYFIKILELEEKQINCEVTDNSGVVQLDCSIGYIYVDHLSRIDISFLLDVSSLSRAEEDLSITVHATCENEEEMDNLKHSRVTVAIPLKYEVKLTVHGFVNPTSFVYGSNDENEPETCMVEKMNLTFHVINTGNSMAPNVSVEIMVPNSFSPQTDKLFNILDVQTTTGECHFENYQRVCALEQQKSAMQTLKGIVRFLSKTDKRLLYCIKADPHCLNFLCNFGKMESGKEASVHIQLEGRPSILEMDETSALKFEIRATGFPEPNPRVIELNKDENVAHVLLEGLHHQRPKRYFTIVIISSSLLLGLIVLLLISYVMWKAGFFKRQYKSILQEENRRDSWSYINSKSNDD
T1 sequence (P26010 20-798): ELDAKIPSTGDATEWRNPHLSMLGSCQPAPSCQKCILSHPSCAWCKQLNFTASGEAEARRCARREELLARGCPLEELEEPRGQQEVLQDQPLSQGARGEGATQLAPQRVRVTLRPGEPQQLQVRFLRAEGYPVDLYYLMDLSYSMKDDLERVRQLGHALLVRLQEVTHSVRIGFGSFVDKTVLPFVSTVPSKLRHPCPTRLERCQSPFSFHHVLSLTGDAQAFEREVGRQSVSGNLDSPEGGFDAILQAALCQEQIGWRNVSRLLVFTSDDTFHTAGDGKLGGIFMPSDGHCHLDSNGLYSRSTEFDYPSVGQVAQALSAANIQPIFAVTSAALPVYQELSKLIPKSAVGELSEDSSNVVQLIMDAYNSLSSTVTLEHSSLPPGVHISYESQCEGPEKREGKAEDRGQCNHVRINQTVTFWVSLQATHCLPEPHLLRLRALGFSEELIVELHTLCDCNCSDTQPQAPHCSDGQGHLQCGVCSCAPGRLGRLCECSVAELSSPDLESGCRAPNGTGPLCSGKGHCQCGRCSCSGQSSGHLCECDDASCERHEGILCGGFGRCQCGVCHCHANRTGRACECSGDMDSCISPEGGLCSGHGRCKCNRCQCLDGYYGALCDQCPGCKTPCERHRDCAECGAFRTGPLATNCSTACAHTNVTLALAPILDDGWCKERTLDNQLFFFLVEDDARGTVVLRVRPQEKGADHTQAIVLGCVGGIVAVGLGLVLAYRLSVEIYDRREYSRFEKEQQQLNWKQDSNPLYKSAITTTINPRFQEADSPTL
Description: α4β7-MAdCAM Cell Adhesion Assay. Type of data set: cell-based. The settings on record: thioether peptide dimers, Table 7; read-out: Cell-Adhesion A4B7. The method, boiled down: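 Peptide inhibition of adhesion measured with MAdCAM-1/Fc chimera immobilised at 200 ng/well and MnCl2-activated (1 mM) RPMI 8866 cells, 30-45 min at 37° C. Adherent cells remaining after three washes detected by MTT reduction at 570 nm, corrected for no-cell wells, giving dose response.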

Data set [4] can be described thus: Dithiothreitol (DTT) Redox Stability Assay. Type of data set: physicochemical. The settings on record: 0.5 mM DTT, room temperature; control peptide monomers, Table 8. The method, then:
Studies were carried out under redox conditions to evaluate intestinal stability of the peptide molecules of the instant invention.
Dithiothreitol (DTT) Redox Stability Assay
The DTT stability assay was prepared by adding 5 μl of a 10 mM peptide stock solution in DMSO to 1 ml of 100 mM Tris-Cl, pH 7.5 (final peptide concentration is 50 μM). At time 0 min, 5 μl of a freshly thawed 100 mM DTT solution was added such that the final DTT concentration is 0.5 mM. The reactions were incubated at room temperature. At different time points up to 120 minutes, 50 μl aliquots were removed and the reaction was quenched by adding 10 ul of 5M acetic acid. To measure disappearance of the parent peptide, the quenched samples (30 μl) were analyzed by reverse phase HPLC and UV absorbance at 220 nm. Half-lives were calculated by fitting to a first-order exponential decay equation using Excel.

The mark [5] stands for this setting: thioether peptide dimers, Table 7.
Setting [6] is: control peptide monomers, Table 8.

Where a SMILES comes first, the peptide text is derived from it.

Consider `CC(C)C[C@@H]1NC(=O)[C@H]([C@@H](C)O)NC(=O)[C@H](CC(=O)O)NC(=O)[C@H](CO)NC(=O)[C@H](CCCNC(=N)N)N(C)C(=O)c2ccccc2CSC(C)(C)[C@@H](C(=O)N[C@@H](Cc2c[nH]c3ccccc23)C(=O)N[C@H](CCC(=O)O)C(N)=O)NC1=O` [compound 98] (HELM PEPTIDE1{[meR].S.D.T.L.[Pen].W.[dE].[am]}|CHEM1{[O=C(c1ccccc1C[*:2])[*:1]]}$PEPTIDE1,CHEM1,1:R1-1:R1|PEPTIDE1,CHEM1,6:R3-1:R2$$$V2.0), for which the IC50 in data set [1] (thioether monomer peptides, Table 6) was in the range of 100 to 1000 nM.
`CC(C)C[C@@H]1NC(=O)[C@H]([C@@H](C)O)NC(=O)[C@H](CC(=O)O)NC(=O)[C@H](CO)NC(=O)[C@H](CCCNC(=N)N)N(C)C(=O)c2ccccc2CSC(C)(C)[C@@H](C(=O)N[C@@H](Cc2ccccc2)C(=O)N[C@H](CCC(=O)O)C(=O)N[C@H](CCCCN)C(N)=O)NC1=O` [compound 155] (HELM PEPTIDE1{[meR].S.D.T.L.[Pen].F.[dE].[dK].[am]}|CHEM1{[O=C(c1ccccc1C[*:2])[*:1]]}$PEPTIDE1,CHEM1,1:R1-1:R1|PEPTIDE1,CHEM1,6:R3-1:R2$$$V2.0) gave an IC50 in data set [1] (setting [5]) of 25 to 100 nM. Also, the half-life in data set [2] was more than 3 h; in data set [3] (37° C., dimers, Table 7), more than 3 h.
For `CC(C)C[C@@H]1NC(=O)[C@H]([C@@H](C)O)NC(=O)[C@H](CC(=O)O)NC(=O)[C@H](CO)NC(=O)[C@H](CCCNC(=N)N)N(C)C(=O)c2ccccc2CSC(C)(C)[C@@H](C(=O)N[C@@H](Cc2ccc(C(C)(C)C)cc2)C(=O)N[C@@H](CCC(=O)O)CC(=O)N[C@H](CCCCN)C(N)=O)NC1=O` [compound 222], the IC50 (in data set [1] (setting [5]); on RPMI 8866 cells) was less than 25 nM each time.
As for `CC(=O)N[C@H]1CSSC[C@@H](C(=O)NCC(=O)N[C@@H](CCC(=O)O)C(N)=O)NC(=O)[C@H](CC(C)C)NC(=O)[C@H]([C@@H](C)O)NC(=O)[C@H](CC(=O)O)NC(=O)[C@H](CO)NC(=O)[C@H](CCCNC(=N)N)NC1=O` [compound 385] (HELM PEPTIDE1{[ac].C.R.S.D.T.L.C.G.E.[am]}$PEPTIDE1,PEPTIDE1,2:R3-8:R3$$$V2.0; bridges inferred), the “Redox stability (DTT)” value in data set [4] is reported as approximately 3 min. Moreover, in data set [3] (setting [6]), the half-life was less than 0.0167 h.
The corresponding values for `CC(=O)N[C@H]1CSSC[C@@H](C(N)=O)NC(=O)[C@H](CC(C)C)NC(=O)[C@H]([C@@H](C)O)NC(=O)[C@H](CC(=O)O)NC(=O)[C@H](CO)NC(=O)[C@H](CCCNC(=N)N)NC1=O` [compound 386] (HELM PEPTIDE1{[ac].C.R.S.D.T.L.C.[am]}$PEPTIDE1,PEPTIDE1,2:R3-8:R3$$$V2.0; bridges inferred) are approximately 3 min and less than 0.0167 h.

Source of the values: patent US20260217767A1, “NOVEL A4B7 THIOETHER PEPTIDE DIMER ANTAGONISTS” (Protagonist Therapeutics, Inc., priority 2014, published 2026).
